Data: the supplement of paper PMC10307832

Assays:
[1] = compound: CC1=CC(=CC=C1)NC2=NC(=CS2)C3=CC=NC=C3 + Cc1nc(Nc2ncc(C(=O)Nc3c(C)cccc3Cl)s2)cc(N2CCN(CCO)CC2)n1 [Dasatinib] (partner 0.075 µM); assay: relative viability (nuclei count vs DMSO), 5 days (fraction); higher = more cells survive
Method in brief: (§1)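 Nuclei were stained with Hoechst during a one-step fixation (final 0.05% Triton X-100, 1% formaldehyde, 1 ug/ml Hoechst) carried out 5 days after dosing, then counted on 4× images. The cells, lung cancer lines in 1536-well plates, had been dosed by pin tool the day after seeding with one drug alone or a fixed anchor-drug dose plus five library-drug doses (not always all listed) in √10 steps. Relative viability is the nuclei count in treated wells divided by that in vehicle wells, and each value is the median of duplicate plates.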

[2] = compound: CC1=CC(=CC=C1)NC2=NC(=CS2)C3=CC=NC=C3 + CCNC(=O)c1noc(-c2cc(C(C)C)c(O)cc2O)c1-c1ccc(CN2CCOCC2)cc1 [Luminespib] (partner 0.01 µM); assay: as above
Method in brief: as §1

Q: Which results are given for NCI-H838?
A: relative viability ([1]; first compound 0.08 µM): 0.233; relative viability ([1]; first compound 0.253 µM): 0.248; relative viability ([1]; first compound 0.8 µM): 0.244; relative viability ([1]; first compound 2.53 µM): 0.293; relative viability ([1]; first compound 8 µM): 0.267; relative viability ([2]; first compound 0.08 µM): 0.38; relative viability ([2]; first compound 0.253 µM): 0.318; relative viability ([2]; first compound 0.8 µM): 0.324; relative viability ([2]; first compound 2.53 µM): 0.316; relative viability ([2]; first compound 8 µM): 0.25

Q: Which results are given for NCI-H1437?
A: relative viability ([1]; first compound 0.08 µM): 0.497; relative viability ([1]; first compound 0.253 µM): 0.438; relative viability ([1]; first compound 0.8 µM): 0.586; relative viability ([1]; first compound 2.53 µM): 0.392; relative viability ([1]; first compound 8 µM): 0.649; relative viability ([2]; first compound 0.08 µM): 1.18; relative viability ([2]; first compound 0.253 µM): 1.17; relative viability ([2]; first compound 0.8 µM): 1.1; relative viability ([2]; first compound 2.53 µM): 1.13; relative viability ([2]; first compound 8 µM): 0.98

Q: For HOP-62, which relative viability ([1]; first compound 0.08 µM) is on record?
A: 0.52

Q: What about the relative viability ([1]; first compound 0.253 µM) of the same cell line?
A: 0.605

Q: And the relative viability ([1]; first compound 0.8 µM)?
A: 0.527

Q: And the relative viability ([1]; first compound 2.53 µM)?
A: 0.594

Q: And the relative viability ([1]; first compound 8 µM)?
A: 0.449

Q: And the relative viability ([2]; first compound 0.08 µM)?
A: 0.952

Q: And the relative viability ([2]; first compound 0.253 µM)?
A: 0.8

Q: And the relative viability ([2]; first compound 0.8 µM)?
A: 0.867

Q: And the relative viability ([2]; first compound 2.53 µM)?
A: 0.914

Q: And the relative viability ([2]; first compound 8 µM)?
A: 0.879

Q: NCI-H2087 was tested. Which relative viability ([1]; first compound 0.08 µM) did it give?
A: 0.67

Q: What about the relative viability ([1]; first compound 0.253 µM) of the same cell line?
A: 0.804

Q: What about the relative viability ([1]; first compound 0.8 µM) of the same cell line?
A: 0.742

Q: And the relative viability ([1]; first compound 2.53 µM)?
A: 0.778

Q: What about the relative viability ([1]; first compound 8 µM) of the same cell line?
A: 0.796

Q: And the relative viability ([2]; first compound 0.08 µM)?
A: 0.17

Q: What about the relative viability ([2]; first compound 0.253 µM) of the same cell line?
A: 0.183

Q: And the relative viability ([2]; first compound 0.8 µM)?
A: 0.137

Q: And the relative viability ([2]; first compound 2.53 µM)?
A: 0.21

Q: And the relative viability ([2]; first compound 8 µM)?
A: 0.126
